Blank lines part the entries; values can stand above or below the compound they belong to.
Key:
Format in all cases: physicochemical
[1] = chemical stability test by HPLC analysis
Procedure: HPLC data were collected on Ultimate 3000 under the following conditions: column, YMC-Pack ODS-AQ (4.6*250 mm*5 μm); column temperature, 40° C.; flow rate, 1.5 mL/min; detection wavelength, 254 nm; injection volume 3 uL; operation time, 40 min; mobile phase, a mixture of acetonitrile: 10 mM monopotassium phosphate=1:2. 1. Appropriate amounts of entinostat and Compound A in the present invention were used respectively for HPLC analysis, the purity of the compounds and the maximum single impurity (RRT=1.403) were calculated. 2. Chemical stability tests of entinostat and Compound A in the present invention were performed. The conditions were as follows: room temperature, high temperature (40° C.), high humidity (75% RH), and acceleration (40° C.-75% RH), and the storage time is 14 days. Using HPLC analysis, the change of maximum single impurity (RRT=1.403), the change of the main ingredient level and the change of total impurities number were studied.

[2] = phase stability test of the crystalline forms; conditions: for phases after storage: stored at room temperature and high temperature for 14 days
Procedure: X-ray powder diffraction (XRPD): performed on Bruker D8 Advance diffractometer. The scan range 3-40° 20, step size 0.02020, and speed 0.2 s/step. Appropriate amounts of Crystalline Form of Compound A and Crystalline Form of Compound B in the present invention were used respectively for the phase stability test. The conditions were room temperature and high temperature (50° C.).

[3] = apparent water solubility test; conditions: for solubility at 3 min: thermodynamic from solid, apparent water solubility, water bath 25° C.±2° C., visual check for clear solution
Procedure: Entinostat, Compound A and Compound B in the present invention were tested for the apparent water solubility, and the operations were as follows:
Placed 3 mg of sample in a 100 mL Erlenmeyer flask in a water bath at 25° C.±2° C., added water by doubling, stirred at about 200 rpm/min, checked visually if the solution was clear. The interval between each addition of water was 3 minutes, and the maximum amount of water to add was 60 mL.

[4] = High temperature (40° C.), 14 days, first line so headed (r10)
[5] = High temperature, 14 days, second line so headed (r12)
[6] = Speeded-up (acceleration, 40° C.-75% RH), 14 days
[7] = High temperature (50° C.), 7 days
[8] = High temperature (50° C.), 14 days
[9] = High temperature (40° C.), 14 days, first line so headed (r10), listed as Entinostat
[10] = High temperature, 14 days, second line so headed (r12), listed as Entinostat
[11] = Room temperature, 0 days, listed as Entinostat
[12] = Room temperature, 14 days, listed as Entinostat
[13] = Speeded-up (acceleration, 40° C.-75% RH), 14 days, listed as Entinostat

- Main ingredient (%) [1, 4]: 99.9%
- Number of impurities (≥0.04%) [1, 4]: 0
- RRT = 1.403 (%) maximum single impurity [1, 4]: 0.11%
- Main ingredient (%) [1, 5]: 99.9%
- Number of impurities (≥0.04%) [1, 5]: 0
- RRT = 1.403 (%) maximum single impurity [1, 5]: 0.11%
- Main ingredient (%) ([1]; Room temperature, 0 days): 99.9%
- Number of impurities (≥0.04%) ([1]; Room temperature, 0 days): 0
- RRT = 1.403 (%) maximum single impurity ([1]; Room temperature, 0 days): 0.12%
- Main ingredient (%) ([1]; Room temperature, 14 days): 99.9%
- Number of impurities (≥0.04%) ([1]; Room temperature, 14 days): 0
- RRT = 1.403 (%) maximum single impurity ([1]; Room temperature, 14 days): 0.13%
- Main ingredient (%) [1, 6]: 99.9%
- Number of impurities (≥0.04%) [1, 6]: 0
- RRT = 1.403 (%) maximum single impurity [1, 6]: 0.13%
- Crystal form after storage [2, 7]: unchanged
- Crystal form after storage [2, 8]: unchanged
- Crystal form after storage ([2]; Room temperature, 7 days): unchanged
- Crystal form after storage ([2]; Room temperature, 14 days): unchanged
- phases after storage [2]: unchanged
SMILES: Nc1ccccc1NC(=O)c1ccc(CNC(=O)OCc2cccnc2)cc1 [Compound A]

- solubility in water (in words) ([3]; finding of the inventors on prior-art polymorphs, no method given): low
SMILES: Nc1ccccc1NC(=O)c1ccc(CNC(=O)OCc2cccnc2)cc1 [polymorph A, N-(2-aminophenyl)-4-[N-(pyridin-3-yl)methoxycarbonyllaminomethyl]benzamide]

- solubility at 3 min [3]: 1010 µg/mL
- Crystal form after storage [2, 7]: unchanged
- Crystal form after storage [2, 8]: unchanged
- Crystal form after storage ([2]; Room temperature, 7 days): unchanged
- Crystal form after storage ([2]; Room temperature, 14 days): unchanged
- phases after storage [2]: unchanged
SMILES: Nc1ccccc1NC(=O)c1ccc(CNC(=O)OCc2cccnc2)cc1.O=C(O)/C=C\C(=O)O [Compound B]

- impurity at RRT=1.403, main ingredient and number of impurities after storage ([1]; 14 days under room temperature, high temperature, high humidity and acceleration): essentially unchanged
- Main ingredient (%) [1, 9]: 98.4%
- Number of impurities (≥0.04%) [1, 9]: 5
- RRT = 1.403 (%) maximum single impurity [1, 9]: 1.44%
- Main ingredient (%) [1, 10]: 98.4%
- Number of impurities (≥0.04%) [1, 10]: 5
- RRT = 1.403 (%) maximum single impurity [1, 10]: 1.43%
- Main ingredient (%) [1, 11]: 98.4%
- Number of impurities (≥0.04%) [1, 11]: 4
- RRT = 1.403 (%) maximum single impurity [1, 11]: 1.42%
- Main ingredient (%) [1, 12]: 98.4%
- Number of impurities (≥0.04%) [1, 12]: 4
- RRT = 1.403 (%) maximum single impurity [1, 12]: 1.42%
- Main ingredient (%) [1, 13]: 98.4%
- Number of impurities (≥0.04%) [1, 13]: 5
- RRT = 1.403 (%) maximum single impurity [1, 13]: 1.41%
- solubility at 3 min [3]: < 50 µg/mL
SMILES: Nc1ccccc1NC(=O)c1ccc(CNC(=O)OCc2cccnc2)cc1 [entinostat, N-(2-aminophenyl)-4-[N-(pyridin-3-yl)methoxycarbonyllaminomethyl]benzamide]

— patent US11208382B2, “Entinostat-containing compound, crystal form of compound thereof, and preparation method therefor and pharmaceutical composition thereof” (Hangzhou SoliPharma Co., Ltd., priority 2017, dated 2021)
